# Patent publication US20250195510A1, “NOVEL METHODS” (priority 2022, published 2025)
# How the values were obtained:
# [1] = test system: Serum cytokine concentration; assay: Serum cytokine protein (Multiplex MSD) after acute restraint stress; format: in vivo, mouse; details: restraint stress 2 h + Luma 3 mg/kg IP
# Method: Multiplex Assays. In mouse serum, protein levels of IL-1b, IL-6, IL-10 and TNF-alpha are measured using a V-Plex Meso Scale Discovery (MSD) Multiplex spot assay Mouse Neuroinflammation 1 panel (Meso Scale Diagnostics, Rockville, MD). All samples are run in duplicates or triplicates according to manufacturer instructions and analyzed with MSD Discovery Workbench software (Meso Scale Diagnostics).
# Restraint Stress Protocol.
# Control mice receive vehicle treatment and are returned to their home cage before sample collection. Protein concentration is measured using the Multiplex MSD assay V-Plex technology, normalized to the control group. Results are expressed in pg/mL.
# Sprague-Dawley rats [2] = assay: Novelty Suppressed Feeding Test (NSFT); format: in vivo, rat; details: naïve rats, Luma 1 mg/kg IP days 1 and 3, no LPS; control 657.8
# Method: (§1) Behavioral Evaluation. All behavioral tests are performed in the morning with adult male Sprague-Dawley rats (n=9-11 per group for the experiments with LPS, and n=13-14 per group for the naïve rats).
# Novelty Suppressed Feeding Test (NSFT). This test measures consumption of a familiar food in a novel environment, relying on rodents' aversion to eating in a novel environment after a period of food deprivation (Ramaker and Dulawa, “Identifying fast-onset antidepressants using rodent models,” Mol. Psychiatry 22:656-665 (2017)). Rats are food-deprived overnight and placed in an open field (76.5×76.5×40 cm^3) with a small amount of food pellets (6 pellets total). At the time of the test, rats are exposed to the open field for the first time (novelty) and allowed to explore it for a maximum of 15 minutes under red light. The latency for the animal to approach the food pellets and take its first bite is manually scored. A home cage feeding test (HCFT) is performed afterwards to ensure latency measured in NSFT is not a matter of difference in hunger. A home cage food intake analysis evaluated the amount of food eaten (in grams) over a period of 10 minutes following the end of the entire test session.
# Basal levels of anxiety are also tested using 2 commonly used tests, NSFT and novelty induced hypophagia (NIH), in the absence of LPS. […]
# [3] = test system: patients with schizophrenia; assay: Phase 3 clinical trial in schizophrenia with acute exacerbation of psychosis; format: in vivo, human; details: 60 mg or 40 mg lumateperone tosylate once daily for 28 days vs placebo
# Method: A randomized, double-blind, placebo-controlled, phase 3 clinical trial was conducted with 450 patients with schizophrenia, aged 18 to 60 years, who were experiencing an acute exacerbation of psychosis. Patients were included if they were experiencing an acute exacerbation of psychosis, defined as a total score on the Brief Psychiatric Rating Scale of […] or higher, with a score of 4 or higher on 2 or more positive symptoms, and onset of the acute episode within 4 weeks of screening. Patients were required to have a score of 4 or higher, indicating moderate to severe disease severity, on the Clinical Global Impression-Severity of Illness (CGI-S) at screening and baseline. […]
# The primary efficacy end point was mean change from baseline to day 28 in the Positive and Negative Syndrome Scale (PANSS) total score versus placebo. […] The PANSS subscale scores, social function, safety, and tolerability were also assessed. Primary and key secondary efficacy measures were assessed weekly. Safety was assessed by treatment-emergent adverse events (TEAEs), modified physical examinations, 12-lead electrocardiograms (ECGs), vital signs, and clinical laboratory tests (blood and urine samples for clinical laboratory analysis were collected from all subjects upon screening and on Days 1, 8, 28, and 33, following overnight fast).
# Sprague-Dawley rats [4] = assay: Open Field Test (OFT), locomotion; format: in vivo, rat
# Method: as §1
# Open Field Test (OFT). Rats are placed in an open field box (76.5×76.5×40 cm^3) under dim lighting and locomotor activity over a 10 minute period is measured using ANY-Maze Software (Stoelting Co., Wood Dale, IL).
compound,measurement,setting,value
"CN1CCN2c3c(cccc31)[C@@H]1CN(CCCC(=O)c3ccc(F)cc3)CC[C@@H]12 [Lumateperone, 4-((6bR,10aS)-3-methyl-2,3,6b,9,10,10a-hexahydro-1H-pyrido[3′,4′: 4,5]pyrrolo[1,2,3-de]quinoxaline-8 (7H)-yl)-1-(4-fluorophenyl)-1-butanone]",Serum IL-1b concentration,"[1]; control 0.7, stressed 1.65",0.81 pg/mL
same,Serum TNF-alpha concentration,"[1]; control 6.75, stressed 10.28",7.67 pg/mL
same,Serum IL-10 concentration,"[1]; control 17.18, stressed 86.78",70.03 pg/mL
same,Serum IL-6 concentration,"[1]; control 141.3, stressed 627.4",137.7 pg/mL
same,NSFT latency to feed,Sprague-Dawley rats [2],507.9 s
same,"efficacy on symptoms of schizophrenia (PANSS total score, CGI-S)",[3],effective for improving the symptoms of schizophrenia
same,safety and tolerability,[3],favorable safety profile
same,OFT locomotion,"Sprague-Dawley rats [4]; naïve rats, Luma 1 mg/kg IP days 1 and 3, control 17.2",32.8 m
same,OFT locomotion (distance travelled),"Sprague-Dawley rats [4]; open field track length, rats, LPS 1 mg/kg SC + Luma 1 mg/kg IP, control 13.29, LPS + Vehicle 12.81",12.27 meters
